Results: patent publication US8580711B2, “Decreasing or preventing sub-surface geological matter contamination by agrochemicals” (Yeda Research and Development Co. Ltd., priority 2005, dated 2013)

Columns and labels:
[1] = partitioning (adsorption and desorption) of electron transfer mediators on/off geological matter; type: physicochemical; conditions: Kaolinite clay, room temperature; for Adsorption (%) of (ETM) after 10 days: aqueous mixture; for Desorption (%) of (ETM) after 10 days: fresh water replaced
Experimental: Kaolinite clay, ‘purum, natural’ grade, was obtained from Fluka.
(§1) 40 milliliter (ml) (0.04 liter) glass vials (filled with 10 milliliters, of solution), were used at room temperature (between about 20° C. and about 25° C.) and atmospheric pressure, as the vessel or container, for containing the aqueous mixtures of the (partitioning) electron transfer mediator (ETM)—geological matter (soil or clay).
(§2) Ultraviolet and visible (UV/VIS) absorption spectrometry was used for measuring and determining the quantity (concentration), after a time period of 10 days each of (ETM) adsorption and desorption, of each (partitioning) electron transfer mediator (ETM) in the aqueous (liquid) phase of each respective electron transfer mediator (ETM)—geological matter (soil or clay) aqueous mixture. Multiple samples of the aqueous (liquid) phase of each mixture were taken from each respective glass vial (partitioning vessel).
(§3) The UV/VIS absorption spectrometer was a Varian, Cary 100, operative according to double beam analysis. Concentrations of the [TBSP-Ni], hematoporphyrin-Cobalt, and vitamin B12, electron transfer mediators (ETMs), were measured at absorption wavelengths of 527 nanometers (nm), 413 nanometers (nm), and 548 nanometers (nm), respectively.
(§4) The electron transfer mediator (ETM)—geological matter (soil or clay) partitioning experiments were performed at room temperature (between about 20° C. and about 25° C.) and atmospheric pressure.
(§5) Each prepared 2 mM metalloporphyrin complex, or metallocorrin complex, (ETM) aqueous stock solution, was diluted by a ratio of 1/10 or 1/100 with the distilled deionized filtered water, for forming respective diluted (ETM) stock solutions.
(§6) For each diluted (ETM) stock solution, corresponding to each respective electron transfer mediator (ETM), an amount of each type of geological matter, i.e., Bet Dagan soil, kaolinite clay, and montmorillonite clay, was weighed, and added to a separate glass vial (partitioning vessel). (ETM) Control solutions remained absent of any geological matter. […]
(§7) The ‘adsorption mode’ analytical samples were then analyzed by the above described (UV/VIS) absorption spectrometry procedure, for determining the quantity (concentration) of the [TBSP-Ni], hematoporphyrin-Cobalt, and vitamin B12, electron transfer mediator (ETM), present (i.e., remaining) in the aqueous (liquid) phase of each respective electron transfer mediator (ETM)—geological matter (soil or clay) aqueous mixture. Such analysis and determination corresponded to quantitatively measuring and determining the extent that the respective electron transfer mediator (ETM) left the aqueous (liquid) phase and ‘adsorbed’ onto the respective geological matter (soil or clay) (solid) phase. The (ETM) Control solutions were similarly analyzed. […]

[2] = batch mode homogeneous catalytic reductive dechlorination of endosulfan in contaminated water, titanium (III) citrate as bulk electron donor; conditions: after 72 hours of reaction, about 0.010 mM catalyst, 0.32 ppm endosulfan initially, room temperature
Experimental: 40 milliliter (0.04 liter) glass vials (usually filled with about 25 milliliters of reaction solution), fitted with Teflon®-clear silicon sealing cups, were used at room temperature (between about 20° C. and about 25° C.) and atmospheric pressure. Contents of each glass vial (batch reactor) were mixed by securing the glass vial onto an orbital shaker (model TS-600, from MRC, Israel) having automatic (mixing) speed control. Multiple replicates of each glass vial (batch reactor) filled with reaction solution were prepared at the beginning of an experiment.
The glass vial batch mode reaction systems were prepared under oxygen free atmosphere conditions, using an anaerobic chamber (Coy Laboratory Products, MI, USA) containing an oxygen free atmosphere composed of a mixture of nitrogen [N2] gas and hydrogen [H2] gas, having a 95/5 molar or partial pressure ratio.
GC/MS was used for monitoring concentration over time, of endosulfan (as α and β isomers) in the endosulfan contaminated water, during the batch mode homogeneous catalytic reactions.
The extracted organic phase was then transferred to a gas chromatograph vial and analyzed for the presence of the endosulfan (as α and β isomers) contaminant.
The reactions were performed at room temperature (between about 20° C. and about 25° C.) and atmospheric pressure.
A volume of 25 milliliter (0.025 liter) was taken from the appropriate stock solution of water contaminated with endosulfan and added to the empty 40 milliliter glass vial (batch reactor), for providing an initial concentration of 0.32 mg endosulfan per liter contaminated water, or 0.32 ppm endosulfan in the contaminated water. This procedure was repeated, for preparing at least two glass vials (batch reactors) for each experiment.
Reducing conditions were not naturally prevalent in the endosulfan contaminated water in the glass vials (batch reactors) for effectively enabling the phenomena, mechanisms, and processes of the electron transfer mediated (homogeneous) catalytic reductive dehalogenation of the endosulfan contaminant in the contaminated water. Thus, reducing conditions in the endosulfan contaminated water were anthropogenically produced by exposing the endosulfan contaminated water to titanium (III) citrate [Ti(OC(CH2COOH)2COOH] as the bulk electron donor or reducing agent, immediately before exposing the endosulfan contaminated water to the catalytically effective amount of each respective above stated metalloporphyrin complex, or metallocorrin complex, electron transfer mediator (homogeneous catalyst).
The pH of the solution was then adjusted to the desired value (e.g., 9.0) by adding small amounts of NaOH concentrated solution to each glass vial (batch reactor).
Then, an appropriate volume was taken from each respective above stated 2 mM metalloporphyrin complex, or metallocorrin complex, stock solution, and added to each glass vial (batch reactor) containing endosulfan contaminated water and titanium (III) citrate, for providing a concentration of about 0.010 mM metalloporphyrin complex, or metallocorrin complex, electron transfer mediator (homogeneous) catalyst in the endosulfan contaminated water. At this point, the glass vials were sealed, and transferred to the orbital shaker.
The contents, i.e., the endosulfan contaminated water containing the titanium (III) citrate as bulk electron donor or reducing agent and the metalloporphyrin complex, or metallocorrin complex, electron transfer mediator (homogeneous) catalyst, in each glass vial (batch reactor), were continuously mixed by securing each glass vial onto the orbital shaker set at a mixing speed of 150 rpm during the entire extent of time or duration of reaction.
For each metalloporphyrin complex, or metallocorrin complex, GC/MS analytical samples were prepared after 72 hours from each of at least two glass vials containing the endosulfan contaminated water of the batch mode homogeneous catalytic reductive dechlorination reaction.

[3] = partitioning (adsorption and desorption) of electron transfer mediators on/off geological matter; type: physicochemical; conditions: Bet Dagan soil, room temperature; for Adsorption (%) of (ETM) after 10 days: aqueous mixture; for Desorption (%) of (ETM) after 10 days: fresh water replaced
Experimental: Bet Dagan soil was obtained from the site of the Bet Dagan Agricultural Research Organization campus, Bet Dagan, Israel. The Bet Dagan soil was sieved to a size of 60 mesh, and maintained in a dry air environment until use.
as §1, §2, §3, §4, §5, §6
The ‘adsorption mode’ analytical samples were then analyzed by the above described (UV/VIS) absorption spectrometry procedure, for determining the quantity (concentration) of the [TBSP-Ni], hematoporphyrin-Cobalt, and vitamin B12, electron transfer mediator (ETM), present (i.e., remaining) in the aqueous (liquid) phase of each respective electron transfer mediator (ETM)—geological matter (soil or clay) aqueous mixture. […]

[4] = as above; type: physicochemical; conditions: Montmorillonite clay, room temperature; for Adsorption (%) of (ETM) after 10 days: aqueous mixture; for Desorption (%) of (ETM) after 10 days: fresh water replaced
Experimental: Montmorillonite clay, 10-12% impurities, was obtained from Fluka.
as §1, §2, §3, §4, §5, §6, §7

[5] = USGS estimate; cited from earlier work
[6] = cited from earlier work

Molecule | Normalized Endosulfan Concentration (%) α isomer [2] | Normalized Endosulfan Concentration (%) β isomer [2] | further results
hematoporphyrin-Cobalt | 9.4% | 9.7% | Adsorption (%) of (ETM) after 10 days [1]: 45.28 ± 1.85%; Desorption (%) of (ETM) after 10 days [1]: 12.65 ± 0.67%; Adsorption (%) of (ETM) after 10 days [3]: 12.80 ± 1.2%; Desorption (%) of (ETM) after 10 days [3]: 5.87 ± 0.32%; Adsorption (%) of (ETM) after 10 days [4]: 100%; Desorption (%) of (ETM) after 10 days [4]: 0%
C[n+]1ccc(-c2c3nc(c(-c4cc[n+](C)cc4)c4ccc([n-]4)c(-c4cc[n+](C)cc4)c4nc(c(-c5cc[n+](C)cc5)c5ccc2[n-]5)C=C4)C=C3)cc1.[Fe+2] [[TMPyP—Fe], tetramethylpyridilporphyrin-Iron [5,10,15,20-tetrakis(1-methyl-4-pyridinio)-porphine-Iron]] | 40.7% | 66.7% | –
C=Cc1c(C)c2cc3[nH]c(cc4nc(cc5nc(cc1[nH]2)C(C)=C5CCC(=O)[O-])C(CCC(=O)[O-])=C4C)c(C)c3C=C.[Co+2] [Protoporphyrin IX-Co, protoporphyrin IX-Cobalt] | 31.5% | 37.8% | –
C[n+]1ccc(-c2c3nc(c(-c4cc[n+](C)cc4)c4ccc([n-]4)c(-c4cc[n+](C)cc4)c4nc(c(-c5cc[n+](C)cc5)c5ccc2[n-]5)C=C4)C=C3)cc1.[Co+2] [[TMPyP—Co], tetramethylpyridilporphyrin-Cobalt [5,10,15,20-tetrakis(1-methyl-4-pyridinio)-porphine-Cobalt]] | 1.2% | 0.0% | –
O=S(=O)(O)c1ccc(-c2c3nc(c(-c4ccc(S(=O)(=O)O)cc4)c4ccc([nH]4)c(-c4ccc(S(=O)(=O)O)cc4)c4nc(c(-c5ccc(S(=O)(=O)O)cc5)c5ccc2[nH]5)C=C4)C=C3)cc1.[Ni] [[TBSP—Ni], 4,4′,4″,4′″-(porphine-5,10,15,20-tetrayl)tetrakis(benzenesulfonic acid)-Nickel] | 1.3% | 0.0% | Adsorption (%) of (ETM) after 10 days [1]: 59.44 ± 1.21%; Desorption (%) of (ETM) after 10 days [1]: 40.17 ± 5.51%; Adsorption (%) of (ETM) after 10 days [3]: 71.68 ± 2.31%; Desorption (%) of (ETM) after 10 days [3]: 21.22 ± 2.55%; Adsorption (%) of (ETM) after 10 days [4]: 95.50 ± 0.44%; Desorption (%) of (ETM) after 10 days [4]: 8.57 ± 1.28%
O=S(=O)(O)c1ccc(-c2c3nc(c(-c4ccc(S(=O)(=O)O)cc4)c4ccc([nH]4)c(-c4ccc(S(=O)(=O)O)cc4)c4nc(c(-c5ccc(S(=O)(=O)O)cc5)c5ccc2[nH]5)C=C4)C=C3)cc1.[Co] [[TBSP—Co], 4,4′,4″,4′″-(porphine-5,10,15,20-tetrayl)tetrakis(benzenesulfonic acid)-Cobalt] | 2.8% | 0.0% | –
CCNc1nc(Cl)nc(NC(C)C)n1 [Atrazine, atrazine] | – | – | persistence in deep lakes [5]: exceed 10 years
C[n+]1ccc(-c2c3nc(c(-c4cc[n+](C)cc4)c4ccc([n-]4)c(-c4cc[n+](C)cc4)c4nc(c(-c5cc[n+](C)cc5)c5ccc2[n-]5)C=C4)C=C3)cc1.[Ni+2] [[TMPyP—Ni], tetramethylpyridilporphyrin-Nickel [5,10,15,20-tetrakis(1-methyl-4-pyridinio)-porphine-Nickel]] | 0.0% | 0.0% | –
Clc1ccc(C(c2ccc(Cl)cc2)C(Cl)(Cl)Cl)cc1 [DDT, DichloroDiphenylTrichloroethane] | – | – | partition coefficient, Kd, relative to aldicarb ([6]; ratio DDT / aldicarb): roughly 20,000 times; partition coefficient, Kd, relative to atrazine ([6]; ratio DDT / atrazine): ~1,500 times
Oc1ccc(-c2c3nc(c(-c4ccc(O)cc4)c4ccc([n-]4)c(-c4ccc(O)cc4)c4nc(c(-c5ccc(O)cc5)c5ccc2[n-]5)C=C4)C=C3)cc1.[Ni+2] [[TP(OH)P—Ni], tetrahydroxyphenylporphyrine-Nickel [5,10,15,20-tetrakis(4-hydroxyphenyl)-21H,23H-porphine-Nickel]] | 8.3% | 9.3% | –
Oc1ccc(-c2c3nc(c(-c4ccc(O)cc4)c4ccc([n-]4)c(-c4ccc(O)cc4)c4nc(c(-c5ccc(O)cc5)c5ccc2[n-]5)C=C4)C=C3)cc1.[Co+2] [[TP(OH)P—Co], tetrahydroxyphenylporphyrine-Cobalt [5,10,15,20-tetrakis(4-hydroxyphenyl)-21H,23H-porphine-Cobalt]] | 8.3% | 12.3% | –
